Measured values taken from US20200061026A1, “METHODS AND COMPOSITIONS FOR PREVENTING VECTOR-BORNE DISEASE TRANSMISSION” (The Scripps Research Institute, priority 2016, published 2020).
pIC50: −log10 of the molar value. Like-named read-outs stand apart in the source and are kept apart here.

What was measured:
[1] = system: Anopheles gambiae (Tiassalé); test: Membrane feeding, Anopheles gambiae Tiassalé strain (rdl mutation); assay type: in vivo; conditions: for pIC50: Anopheles gambiae, read-out: IC50 [95% CI]
Protocol: Mosquito colonies utilized in the examples were generally maintained as described: The colony of Anopheles stephensi (Sind-Kasur Nijmegen strain) was maintained at the Radboud University Medical Center, Nijmegen, The Netherlands, by 30° C. and 70-80% humidity and on a 12/12 hour day/night cycle. The Anopheles gambiae strains Kisumu and Tiassalé and the Aedes aegypti strains New Orleans and Cayman were reared at the Liverpool Insect Testing Establishment, Liverpool, UK. Kisumu is an insecticide susceptible lab strain. New Orleans was originally colonized by the Centers for Disease Control and Prevention. The Tiassalé strain was colonized from Southern Cote D'Ivoire where resistance to all classes of insecticide is found and the Cayman strain was colonized from Grand Cayman, where Aedes aegypti are highly resistant to DDT and pyrethroid insecticides. Both resistant strains are routinely selected with insecticides to ensure the maintenance of resistance, 0.75% permethrin for Cayman and 0.05% deltamethrin for Tiassalé, and profiled for resistance to a range of insecticides, including 4% dieldrin, to which Tiassalé is resistant but Cayman is susceptible.
Isoxazoline compounds fluralaner or afoxolaner were reconstituted in 50% human serum and 50% red blood cells and administered to adult Anopheles stephensi mosquitos via standard membrane feeding. Lethality was assessed 1, 2 or 8 days after exposure. FIG. 2A represents a plot of viable Anopheles stephensi versus fluralaner concentration at each day of assessment. FIG. 2B represents a plot of viable Anopheles stephensi versus afoxolaner concentration at each day of assessment. […] The IC50 values of each compound for Anopheles death were determined by logistic regression using a least squares method to find the best fit and are shown in Table 1. IC50 values were calculated by applying a four-parameter logistic regression model using a least-squares method to find the best fit using the Graphpad Prism 5.0 software package.
The membrane feeding experiment described was repeated using the insecticide dieldrin on two strains of Anopheles gambiae: Kisumu and Tiassale. The Tiassale strain has a mutation in the resistance to dieldrin (rdl) locus, which codes for γ-aminobutyric acid (GABA) receptor. The Tiassale strain was resistant to pyrethroids, carbamate, DDT and dieldrin (knockdown resistance (kdr), Ace and rdl mutations). The Kisumu strain was susceptible to killing by all tested insecticides. FIG. 3A represents a plot of percentage survival of Kisumu and Tiassale strains of Anopheles gambiae versus dieldrin concentration. FIG. 3B represents a plot of survival of the Kisumu and Tiassale strains at 10 μM dieldrin. […] Both figures indicate that the dose-response in systemic feed experiment performed here in allows for identification of a resistance profile.
The feed experiment in Anopheles gambiae was repeated using the isoxazoline compounds fluralaner and afoxolaner to determine if the rdl mutation confers resistance to the isoxazoline insecticides. Isoxazoline insecticides target Rdl, but in a location thought to be different from dieldrin. The mosquitos were fed fluralaner or afoxolaner at various concentrations and lethality was assessed after 24 hours. FIG. 4A represents a plot of percentage survival of Kisumu and Tiassale strains of Anopheles gambiae versus fluralaner concentration. FIG. 4B represents a plot of percentage survival of Kisumu and Tiassale strains of Anopheles gambiae versus afoxolaner concentration.

[2] = system: Aedes aegypti (Cayman); test: Membrane feeding, Aedes aegypti Cayman strain; assay type: in vivo; conditions: read-out: IC50 [95% CI]
[3] = system: Anopheles mosquitos; test: Lethal duration estimated by extrapolating published Beagle dog PK curves to killing concentrations
Description: Data for fluralaner in Beagle dogs was obtained from Walther et al., Parasites & Vectors 8:508. Data from afoxolaner in Beagle dogs was obtained from Letendre et al., Veterinary Parasitology, 201, 190-197.
The lethal duration of fluralaner and afoxolaner was estimated by extrapolating pharmacokinetic curves from published studies in Beagle dogs to the killing concentrations determined by the membrane feeding studies described in Example 2. Data for fluralaner in Beagle dogs was obtained from Walther et al., Parasites & Vectors 8:508. Data from afoxolaner in Beagle dogs was obtained from Letendre et al., Veterinary Parasitology, 201, 190-197. A mathematical model was used to estimate the impact of these compounds on Anopheles stephensi mosquito survival.

[4] = system: Phlebotomus argentipes; test: Membrane feeding, sand fly Phlebotomus argentipes; conditions: in vivo
Description: Isoxazoline compounds fluralaner or afoxolaner were reconstituted in 50% human serum and 50% red blood cells and administered to sand flies Lutzomyia longipalpis and Phlebotomus argentipes via standard membrane feeding. These san fly species are vectors for visceral leishmaniasis. FIG. 12A represents a plot of viable Lutzomyia longipalpis versus fluralaner concentration at various times of assessment. FIG. 12B represents a plot of viable Lutzomyia longipalpis versus afoxolaner concentration at various times of assessment. FIG. 12C represents a plot of viable Phlebotomus argentipes versus fluralaner concentration at various times of assessment. FIG. 12D represents a plot of viable Phlebotomus argentipes versus afoxolaner concentration at various times of assessment. […] The EC50 values of each compound for sand fly death were determined by logistic regression using a least squares method to find the best fit and are shown in the figures.

[5] = Dog pharmacokinetics, single oral dose; assay type: in vivo; conditions: level at Day 45
[6] = Plasma stability, cynomolgus monkey; assay type: in vitro ADME; conditions: cynomolgus monkey (cy)
Description: (§1) The stability of compounds in mouse (ms), rat (r), dog (d), cynomolgus monkey (cy), and human (hu) plasma is shown in Table 10 by the percentages of compounds remaining at two hours.

[7] = Plasma stability, human; assay type: in vitro ADME; conditions: human (hu)
Description: as §1

[8] = Plasma stability, dog; assay type: in vitro ADME; conditions: dog (d)
Description: as §1

[9] = Plasma stability, rat; assay type: in vitro ADME; conditions: rat (r)
Description: as §1

[10] = Plasma stability, mouse; assay type: in vitro ADME; conditions: mouse (ms)
Description: as §1

Structure (SMILES) | pIC50 ([1]; 24 hours after the blood meal, Tiassalé strain) | activity against strain carrying the resistance-to-dieldrin (rdl) mutation (in words) ([1]; Tiassalé strain) | pIC50 ([2]; 24 hours after the blood meal, Cayman strain) | time the concentration is above the level lethal to Anopheles mosquitos ([3]; dose of 56 mg/kg) | killing of sand flies (in words) [4] | pIC50 ([1]; 24 h) | pIC50 ([2]; 24 h) | Dog PK (PO) [5] | time the concentration is above lethal level ([3]; 1 mg/kg) | time the concentration is above lethal level ([3]; 4 mg/kg) | Plasma stability % remaining @ 2 h [6] | Plasma stability % remaining @ 2 h [7] | Plasma stability % remaining @ 2 h [8] | Plasma stability % remaining @ 2 h [9] | Plasma stability % remaining @ 2 h [10]
Cc1cc(C2=NO[C@](c3cc(Cl)cc(Cl)c3)(C(F)(F)F)C2)ccc1C(=O)NCC(=O)NCC(F)(F)F [Fluralaner, fluralaner] | 7.48 | fully active | 7.45 | 72 days | effective at killing the sand flies in a dose-dependent manner | – | – | – | – | – | – | – | – | – | –
O=C(CNC(=O)c1ccc(C2=NO[C@](c3cc(Cl)cc(C(F)(F)F)c3)(C(F)(F)F)C2)c2ccccc12)NCC(F)(F)F (racemic) [Afoxolaner, afoxolaner] | – | fully active | – | – | effective at killing the sand flies in a dose-dependent manner | 7.00 | 7.04 | ~600 nM at Day 45 | 43 days | 72 days | 84% (cy); | 84% (hu) | 100% (d); | 61% (r); | 83% (ms);
